Experiment: collision cross section (DTIM-MS, N2); higher = larger ion
Method: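 Collision cross section (CCS) of drug and natural-product chemical standards (validation set 2, measured in this paper). Three independent measurements were made across 2 months; the value taken is their mean (avg_ccs), for the ion adduct given.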

| collision cross section (ion adduct: [M+H]+) | collision cross section (ion adduct: [M-H]-) | SMILES |
| --- | --- | --- |
| 185.04 Å² | 191.16 Å² | C[C@]12C=CC(=O)C=C1CC[C@@H]1[C@@H]2C(=O)C[C@@]2(C)[C@H]1CC[C@]2(O)C(=O)CO [Prednisone] |
| 284.23 Å² | 284.94 Å² | CO[C@H]1C=CO[C@@]2(C)Oc3c(C)c(O)c4c(O)c(c(/C=N/N5CCN(C)CC5)c(O)c4c3C2=O)NC(=O)/C(C)=C\C=C/[C@H](C)[C@H](O)[C@@H](C)[C@@H](O)[C@@H](C)[C@H](OC(C)=O)[C@@H]1C [Rifampicin] |
| 124.71 Å² | 122.43 Å² | NC(=O)c1ccccc1O [Salicylamide] |
| – | 121.24 Å² | O=C(O)c1ccccc1O [Salicylic acid] |
| 235.37 Å² | 235.5 Å² | COc1ccc(-c2cc(=O)c3c(O)cc(O)c(-c4cc(-c5cc(=O)c6c(O)cc(OC)cc6o5)ccc4OC)c3o2)cc1 [Sciadopitysin] |
| – | 178.93 Å² | C=C[C@](C)(O)CC[C@@H]1[C@@]2(C)CCCC(C)(C)[C@@H]2CC[C@@]1(C)O [Sclareol] |
| – | 190.5 Å² | C=C[C@H]1[C@H](O[C@@H]2O[C@H](CO)[C@@H](O)[C@H](O)[C@H]2O)OC=C(C(=O)OC)[C@H]1CC(=O)O [Secoxyloganin] |
| 211.34 Å² | – | CC(C)=CCCC1(C)CCC2(C)C3CCC4(C)C(C)C(=O)CCC4C3(C)CCC2(C)C1 (configuration not stated) [Shionone] |
| 208.54 Å² | 204.63 Å² | COc1cc([C@H]2Oc3cc([C@H]4Oc5cc(O)cc(O)c5C(=O)[C@@H]4O)ccc3O[C@@H]2CO)ccc1O [Silybin] |
| 207.6 Å² | 205.74 Å² | CCC(C)(C)C(=O)O[C@H]1C[C@@H](C)C=C2C=C[C@H](C)[C@H](CC[C@@H]3C[C@@H](O)CC(=O)O3)[C@H]21 [Simvastatin] |
| 235.99 Å² | 239.41 Å² | COc1cc2oc(-c3ccc(O)cc3)cc(=O)c2c(O)c1C1OC(CO)C(O)C(O)C1OC1OC(CO)C(O)C(O)C1O (configuration not stated) [Spinosin] |
| 184.69 Å² | – | Nc1ccc(S(=O)(=O)[N-]c2cnc3ccccc3n2)cc1.[Na+] [Sulfaquinoxaline sodium] |
| 162.69 Å² | 162.87 Å² | Cc1noc(NS(=O)(=O)c2ccc(N)cc2)c1C [Sulfisoxazole] |
| – | 148.59 Å² | COc1cc(C(=O)O)cc(OC)c1O [Syringic acid] |
| – | 281.46 Å² | C=CC[C@@H]1/C=C(/C)C[C@H](C)C[C@H](OC)[C@H]2O[C@@](O)(C(=O)C(=O)N3CCCC[C@H]3C(=O)O[C@H](/C(C)=C/[C@@H]3CC[C@@H](O)[C@H](OC)C3)[C@H](C)[C@@H](O)CC1=O)[C@H](C)C[C@@H]2OC [Tacrolimus] |
| – | 142.34 Å² | O=c1[nH]c(=O)n(C2CCCO2)cc1F (configuration not stated) [Tegafur] |
| – | 185.55 Å² | COc1cc(CCC(=O)CC(=O)CCc2ccc(O)c(OC)c2)ccc1O [Tetrahydrocurcumin] |
| 152.03 Å² | – | Cn1c(=O)c2c(ncn2CC(=O)O)n(C)c1=O [Theophylline-7-acetic acid] |
| 137.12 Å² | – | Cn1c(=O)c2[nH]cnc2n(C)c1=O [Theophylline] |
| 132.57 Å² | 128.86 Å² | Nc1nc(=S)c2[nH]cnc2[nH]1 [Thioguanine] |
| 215.34 Å² | 215.68 Å² | Cn1cncc1[C@@](N)(c1ccc(Cl)cc1)c1ccc2c(c1)c(-c1cccc(Cl)c1)cc(=O)n2C [Tipifarnib] |
| 202.65 Å² | 203.66 Å² | NC[C@H]1O[C@H](O[C@H]2[C@H](O)[C@@H](O[C@H]3O[C@H](CO)[C@@H](O)[C@H](N)[C@H]3O)[C@H](N)C[C@@H]2N)[C@H](N)C[C@@H]1O [Tobramycin] |
| 173.83 Å² | 178.67 Å² | O=C(Nc1ccc(Cl)cc1)Nc1ccc(Cl)c(Cl)c1 [Triclocarban] |
| 130 Å² | 131.83 Å² | CCC(=O)c1ccc(O)cc1 [Vanatone] |
| 221.54 Å² | 227.62 Å² | C[C@H]1O[C@@H](O[C@@H]2[C@@H](O)[C@H](O)[C@@H](CO)O[C@H]2c2c(O)cc(O)c3c(=O)cc(-c4ccc(O)cc4)oc23)[C@@H](O)[C@@H](O)[C@@H]1O [Vitexin-2''-O-rhamnoside] |
| 167.93 Å² | 168.67 Å² | COc1cc(O)c2c(c1)oc(=O)c1c3cc(O)c(O)cc3oc21 [Wedelolactone] |
| – | 146.57 Å² | COc1cc(CCC(C)=O)ccc1O [Zingerone] |
| 163.31 Å² | – | COc1ccc(C=Cc2cc(OC)cc(=O)o2)cc1 [yangonin] |

| SMILES | collision cross section (ion adduct: [M+H]+) | collision cross section (ion adduct: [M-H]-) |
| --- | --- | --- |
| C=C(C)[C@H]1Cc2c(ccc3c2O[C@@H]2COc4cc(OC)c(OC)cc4[C@@H]2C3=O)O1 [Rotenone] | 195.49 Å² | 198.71 Å² |
| O=P(OCCCl)(OCCCl)OCCCl [Tris(2-chloroethyl) phosphate] | 151.08 Å² | – |
| CC(=O)/C=C/c1ccccc1 [trans-4-phenylbut-3-en-2-one] | 131.24 Å² | – |
